According to paper PMC4045134, “Discovery of Triterpenoids as Reversible Inhibitors of α/β-hydrolase Domain Containing 12 (ABHD12)” (PLoS ONE, 2014):
“Also recorded” adds a separate entry of the source. Like-named read-outs stand apart in the source and are kept apart here.

How the values were obtained:
Format in all cases: biochemical
[1] = molecular target: T1, hABHD12 (Homo sapiens, UniProt Q8N2K0); experiment: Fluorescent glycerol assay of 1-AG hydrolysis in hABHD12-HEK293 lysates; conditions: hABHD12-HEK293 lysates; for Emax: read-out: max inhibition (converted)
T1 construct: expressed in transfected cells; host or cells: HEK293 (transient)
T1 sequence (Q8N2K0 1-398): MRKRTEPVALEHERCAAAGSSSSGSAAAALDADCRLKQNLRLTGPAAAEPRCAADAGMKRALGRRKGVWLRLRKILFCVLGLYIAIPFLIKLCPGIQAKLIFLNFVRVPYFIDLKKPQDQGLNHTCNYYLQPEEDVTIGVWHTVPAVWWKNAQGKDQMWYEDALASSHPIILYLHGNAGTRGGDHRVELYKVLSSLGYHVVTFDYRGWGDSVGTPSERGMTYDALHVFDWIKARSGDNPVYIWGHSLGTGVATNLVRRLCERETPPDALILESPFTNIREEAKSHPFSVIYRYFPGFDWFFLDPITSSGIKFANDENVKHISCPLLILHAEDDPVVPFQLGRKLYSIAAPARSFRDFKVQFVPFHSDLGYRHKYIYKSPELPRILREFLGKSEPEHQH
Protocol: (§1) Glycerol liberated from 1-AG hydrolysis was determined with a sensitive fluorescent assay using lysates of HEK293 cells with transient overexpression of hABHD12, hABHD6 or hMAGL, essentially as previously described. […] Fluorescence (λex 530; λem 590 nm) was monitored using a Tecan Infinite M200 plate reader (Tecan Group Ltd., Männedorf, Switzerland). Inhibitory activities of selected compounds towards FAAH were determined using membranes of hFAAH overexpressing COS-7 cells, essentially as previously described. The final incubation volume (100 µL) contained 1 µg of protein and the substrate concentration was 20 µM (10 nM of ^3H-anandamide having specific activity of 60 Ci/mmol and concentration of 1 mCi/mL).

[2] = molecular target: T1, hABHD12; experiment: Competitive ABPP with TAMRA-FP in hABHD12-HEK293 lysates; conditions: 1 h inhibitor, 5 min probe
Protocol: (§2) Competitive ABPP using HEK293 cell lysates and mouse brain membranes was conducted to visualize effects of selected triterpenoids on the binding of the active site serine-targeting fluorescent fluorophosphonate probe TAMRA-FP following outlines of previous protocols, [31]. Briefly, lysates (25 µg) of HEK293 cells with or without (Mock) hABHD12 overexpression or mouse wholebrain membranes (100 µg) were treated for 1 h with DMSO or the inhibitor, after which TAMRA-FP labelling was conducted for 5 min (lysates) or 1 hour (membranes) at RT (final probe concentration 2 µM). The reaction was quenched by addition of gel loading buffer (followed by boiling for 5 min in the case of lysates), after which 10 µg protein (10 µl) was loaded per lane and the proteins were resolved in 10% SDS-PAGE together with standards. TAMRA-FP labeling was visualized (λex 552; λem 575 nm) by a fluorescent reader (FLA-3000 laser fluorescence scanner, Fujifilm, Tokyo, Japan). The intensity of bands was quantified using ImageJ, a freely available image analysis software (http://rsbweb.nih.gov/ij/).

[3] = molecular target: T2, ABHD12 (Mus musculus, UniProt Q99LR1); experiment: Competitive ABPP with TAMRA-FP in mouse brain membrane proteome; conditions: mouse brain membranes, 1 h inhibitor, 1 h probe
T2 construct: the sole serine hydrolase targeted by the triterpenoids in native brain membrane proteome; from tissue; host or cells: mouse whole-brain membranes
T2 sequence (Q99LR1 1-398): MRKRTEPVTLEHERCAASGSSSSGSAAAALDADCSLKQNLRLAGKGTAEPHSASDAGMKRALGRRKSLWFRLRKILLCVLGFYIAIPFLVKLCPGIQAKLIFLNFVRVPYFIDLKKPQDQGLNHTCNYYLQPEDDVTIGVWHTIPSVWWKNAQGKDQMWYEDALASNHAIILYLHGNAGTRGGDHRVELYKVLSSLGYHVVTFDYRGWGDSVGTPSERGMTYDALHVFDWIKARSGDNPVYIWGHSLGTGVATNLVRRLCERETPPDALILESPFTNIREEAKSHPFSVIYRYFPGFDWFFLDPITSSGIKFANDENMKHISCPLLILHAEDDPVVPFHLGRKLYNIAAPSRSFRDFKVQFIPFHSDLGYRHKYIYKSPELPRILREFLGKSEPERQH
Protocol: as §2
(§3) For ABPP experiments (Figure 6C) and cannabinoid receptor activity assays (Table S2), membranes prepared from brain tissue of 4-week-old male rodents were used. The animals were obtained from the National Laboratory Animal Centre, University of Eastern Finland. Approval for the harvesting of animal tissue was obtained from the local welfare officer of the University of Eastern Finland.

[4] = molecular target: T3, hABHD6 (Homo sapiens, UniProt Q9BV23); experiment: Fluorescent glycerol assay in hABHD6-HEK293 lysates; conditions: 10 µM; NI = no inhibition at 10 µM; read-out: hABHD6 Remaining activity % control ± s.e.m (n=3)
T3 construct: expressed in transfected cells; host or cells: HEK293 (transient)
T3 sequence (Q9BV23 1-337): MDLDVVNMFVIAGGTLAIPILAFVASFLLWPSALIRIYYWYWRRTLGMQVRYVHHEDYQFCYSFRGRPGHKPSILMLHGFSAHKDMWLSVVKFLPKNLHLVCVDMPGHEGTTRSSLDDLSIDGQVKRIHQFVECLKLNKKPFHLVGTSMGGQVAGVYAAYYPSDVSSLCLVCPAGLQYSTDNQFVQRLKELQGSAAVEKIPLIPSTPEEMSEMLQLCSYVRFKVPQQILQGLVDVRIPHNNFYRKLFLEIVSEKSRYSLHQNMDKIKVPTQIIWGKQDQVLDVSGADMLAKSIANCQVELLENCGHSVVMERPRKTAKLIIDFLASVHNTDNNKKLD
Protocol: as §1

[5] = molecular target: T4, hMAGL (Homo sapiens, UniProt Q99685); experiment: Fluorescent glycerol assay in hMAGL-HEK293 lysates; conditions: 10 µM; read-out: hMAGL Remaining activity % control ± s.e.m (n=3)
T4 construct: expressed in transfected cells; host or cells: HEK293 (transient)
T4 sequence (Q99685 1-303): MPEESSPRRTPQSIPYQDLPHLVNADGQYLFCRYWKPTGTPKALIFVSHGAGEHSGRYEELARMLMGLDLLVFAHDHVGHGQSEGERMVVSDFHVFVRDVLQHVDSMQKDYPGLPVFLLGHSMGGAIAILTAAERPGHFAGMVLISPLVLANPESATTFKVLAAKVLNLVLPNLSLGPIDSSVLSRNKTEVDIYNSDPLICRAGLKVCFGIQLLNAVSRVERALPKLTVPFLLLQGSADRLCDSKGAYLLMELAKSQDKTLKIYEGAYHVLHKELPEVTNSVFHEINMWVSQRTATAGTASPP
Protocol: as §1

[6] = molecular target: T5, hFAAH (Homo sapiens, UniProt O00519); experiment: FAAH activity, membranes of hFAAH overexpressing COS-7 cells, 3H-anandamide; conditions: read-out: hFAAH Remaining activity % control (mean (range)), n=2
T5 construct: expressed in transfected cells; host or cells: COS-7
T5 sequence (O00519 1-579): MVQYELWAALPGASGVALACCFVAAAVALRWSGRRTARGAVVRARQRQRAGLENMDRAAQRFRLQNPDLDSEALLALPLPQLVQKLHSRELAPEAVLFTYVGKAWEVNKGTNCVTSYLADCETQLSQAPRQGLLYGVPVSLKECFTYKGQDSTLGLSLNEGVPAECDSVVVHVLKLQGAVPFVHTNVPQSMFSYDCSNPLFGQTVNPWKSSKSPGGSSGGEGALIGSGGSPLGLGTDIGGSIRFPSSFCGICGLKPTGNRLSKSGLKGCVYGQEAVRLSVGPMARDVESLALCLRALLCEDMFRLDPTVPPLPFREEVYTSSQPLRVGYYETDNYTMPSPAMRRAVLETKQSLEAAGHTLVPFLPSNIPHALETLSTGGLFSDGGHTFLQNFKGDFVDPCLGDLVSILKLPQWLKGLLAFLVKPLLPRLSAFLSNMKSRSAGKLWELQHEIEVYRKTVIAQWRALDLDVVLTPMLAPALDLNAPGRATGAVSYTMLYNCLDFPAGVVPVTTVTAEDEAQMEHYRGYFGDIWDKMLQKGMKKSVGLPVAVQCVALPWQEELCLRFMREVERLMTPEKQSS
Protocol: as §1

[7] = molecular target: T6, CB1R (Rattus norvegicus, UniProt P20272); experiment: [35S]GTPγS binding, CB1R agonist activity, rat cerebellar membranes; conditions: 10 µM
T6 construct: membranes prepared from brain tissue of 4-week-old male rodents were used; from tissue; host or cells: rat cerebellar membranes
Protocol: (§4) The CB1 and CB2 receptor activity of the selected compounds (10 µM) were measured using the GTPγS binding assay according to the previously described methods, [33].
as §3

[8] = molecular target: T7, hCB2R (Homo sapiens, UniProt P34972); experiment: [35S]GTPγS binding, CB2R agonist activity, hCB2R-CHO cell membranes; conditions: 10 µM
T7 construct: expressed in transfected cells; host or cells: CHO

[9] = molecular target: T6, CB1R; experiment: [35S]GTPγS binding, CB1R antagonist activity, rat cerebellar membranes; conditions: 10 µM
Protocol: as §4, §3

[10] = tested on: metabolic serine hydrolases; experiment: Competitive ABPP, other serine hydrolases of mouse brain membrane proteome
Protocol: as §2
For ABPP experiments (Figure 6C) and cannabinoid receptor activity assays (Table S2), membranes prepared from brain tissue of 4-week-old male rodents were used. The animals were obtained from the National Laboratory Animal Centre, University of Eastern Finland. […]

[11] = molecular target: T1, hABHD12; experiment: Reversibility testing, 40-fold dilution of enzyme-inhibitor complex; conditions: time points 10, 20, 30, 60 and 90 min
Protocol: Reversibility testing was carried out as previously described. Briefly, DMSO/inhibitor (0.5 µl) was incubated together with hABHD12-HEK293 lysate (4.5 µl, 0.3 µg protein/well) in TEMN-BSA buffer for 30 min. After this, a 40-fold dilution of enzyme-inhibitor complex was brought about by addition of the substrate [1-AG, 12.5 µM final concentration, containing additionally 1% EtOH (v/v)] in 195 µl of glycerol assay mix and fluorescence was kinetically monitored at 10 min intervals for 90 min at RT.

[12] = three independent experiments, read-out: -logIC50±s.e.m. (converted)

T6 sequence (P20272 whole entry): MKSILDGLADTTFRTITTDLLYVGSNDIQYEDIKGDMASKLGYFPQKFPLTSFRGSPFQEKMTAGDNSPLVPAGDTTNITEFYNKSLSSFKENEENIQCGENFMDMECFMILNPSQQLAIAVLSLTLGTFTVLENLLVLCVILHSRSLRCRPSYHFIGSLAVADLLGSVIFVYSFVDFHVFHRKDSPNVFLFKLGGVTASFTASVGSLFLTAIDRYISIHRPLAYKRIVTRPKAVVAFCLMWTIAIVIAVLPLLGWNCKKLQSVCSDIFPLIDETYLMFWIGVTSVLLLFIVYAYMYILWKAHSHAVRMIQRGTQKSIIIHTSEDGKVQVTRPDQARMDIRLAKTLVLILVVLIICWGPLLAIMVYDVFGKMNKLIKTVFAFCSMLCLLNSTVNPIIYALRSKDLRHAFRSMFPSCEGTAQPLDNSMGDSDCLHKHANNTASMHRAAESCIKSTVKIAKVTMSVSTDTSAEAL
T7 sequence (P34972 whole entry): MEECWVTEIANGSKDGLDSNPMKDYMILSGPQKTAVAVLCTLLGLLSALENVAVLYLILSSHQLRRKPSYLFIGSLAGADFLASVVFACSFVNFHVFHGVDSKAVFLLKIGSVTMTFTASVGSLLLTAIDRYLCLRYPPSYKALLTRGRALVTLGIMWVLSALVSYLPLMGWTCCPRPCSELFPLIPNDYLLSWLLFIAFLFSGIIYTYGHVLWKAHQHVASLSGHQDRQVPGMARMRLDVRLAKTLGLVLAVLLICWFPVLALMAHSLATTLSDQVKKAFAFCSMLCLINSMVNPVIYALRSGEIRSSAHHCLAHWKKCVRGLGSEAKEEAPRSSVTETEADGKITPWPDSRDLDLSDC

Structure (SMILES)	remaining activity at 10 µM ([1]; 10 µM, NI = no inhibition, read-out: Remaining activity at 10 µM % ± s.e.m.) [%]	TAMRA-FP probe labeling of hABHD12 [2]	TAMRA-FP probe labeling of ABHD12 [3]	IC50 [1, 12] [µM]	Emax [1] [%]	remaining activity at 10 µM [4] [%]	remaining activity at 10 µM [5] [%]	remaining activity at 10 µM [6] [%]	CB1R agonist activity [35S]GTPγS binding % Basal (Mean (range), n=2) [7]	CB2R agonist activity [35S]GTPγS binding % Basal (Mean (range), n=2) [8]	CB1R antagonist activity [35S]GTPγS binding % HU210-evoked response (Mean (range), n=2) [9]	additional targets among the metabolic serine hydrolases [10]	IC50 ([1]; read-out: IC50) [µM]	time-dependency of inhibitor potency (IC50) after 40-fold dilution [11]
C=C(C)[C@@H]1CC[C@]2(C(=O)N3CCCCC3)CC[C@]3(C)[C@H](CC[C@@H]4[C@@]5(C)CC[C@H](O)C(C)(C)[C@@H]5CC[C@]43C)[C@@H]12 [Compound 22]	94 ± 0.5	lacked activity; also recorded: ineffective	ineffective, even at 200 µM concentration											
CC(C)[C@@H]1CC[C@]2(C(=O)O)CC[C@]3(C)[C@H](CC[C@@H]4[C@@]5(C)CCC(=O)C(C)(C)[C@@H]5CC[C@]43C)[C@@H]12 [Compound 23]		dose-dependently inhibited probe labeling of hABHD12	selectively inhibited probe labeling of ABHD12; also recorded: dose-dependently inhibit TAMRA-FP labeling of ABHD12 already at 20 µM	1.62	89	83 ± 2.8	77.5 ± 3.1	98	89 (86-92) % Basal	98 (95-100) % Basal	92 (90-95) % HU210-evoked response	no additional targets are evident		
C=C(C)C1CCC2(C(=O)O)CCC3(C)C(CCC4C5(C)Cc6c([nH]c7ccccc67)C(C)(C)C5CCC43C)C12 (stereo not drawn) [Compound 33]				0.933	65	81 ± 4.3	74.8 ± 4.6	90	95 (94-96) % Basal	102 (90-114) % Basal	97 (96-98) % HU210-evoked response		0.9	time-dependent drop of inhibitor potency
C=C(C)[C@@H]1CC[C@]2(C(=O)O)CC[C@]3(C)[C@H](CC[C@@H]4[C@@]5(C)Cc6c([nH]c7ccc(OC)cc67)C(C)(C)[C@@H]5CC[C@]43C)[C@@H]12 [Compound 34]				1.62	100									time-dependent drop of inhibitor potency
CCCCCCCCCCC[C@@H](C[C@@H]1OC(=O)[C@H]1CCCCCC)OC(=O)[C@H](CC(C)C)NC=O [THL, tetrahydrolipstatin, reference compound]		fully prevented	prevented TAMRA-FP labeling											remained constant; also recorded: does not change in a statistically significant manner
